{
  "source": "patent US7615527B2",
  "about": "“Peptides which modulate blood coagulation and methods of use thereof” (Oregon Health & Science University, priority 2001, dated 2009)",
  "key": {"[1]": {"system": "normal human reference plasma", "experiment": "Activated partial thromboplastin time (aPTT) assay in human plasma", "format": "biochemical", "settings": "1 mM peptide; reference blood plasma; without peptide 29.0±0.1 seconds", "experimental": "Activated Partial Thromboplastin Time (aPTT) Assay. This anti-coagulation assay was chosen for testing the γ′ peptides due to its sensitivity to heparin-like compounds, its ease of use, and the ability to automate the procedure. An MLA 1600 instrument (Organon Teknika) was used to quantitate the effect of the γ′ peptides on the aPTT, using the manufacturer's protocol. Briefly, 0-1 mM γ′ peptides or 0-10 units/ml unfractionated heparin was added to 50 μl of normal reference plasma (Ortho) and manually loaded into the MLA 1600. The MLA 1600 added SynthASil aPTT reagent (Ortho) to initiate clotting, and clot formation was monitored spectrophotometrically for 106 seconds. […] Prothrombin Time/International Normalized Ratio Assay. This clotting assay is less sensitive to heparin than the aPTT, and may be used to determine if a γ′ peptide is capable of prolonging the prothrombin time (PT) to the same extent as the 3 aPTT. One-stage PT assays may be performed using an MLA 1600 instrument according to the manufacturer's protocol. Briefly, 0-1 mM γ′ peptide or scrambled peptide or 0-10 units/ml unfractionated heparin may be added to 50 μl of normal reference plasma (Ortho) and manually loaded into the MLA 1600. The MLA 1600 may be used to add recombinant thromboplastin (Recombiplastin, Ortho) to initiate clotting, and clot formation monitored spectrophotometrically for 106 seconds. If a clot is not generated within 106 seconds, the MLA will automatically extend the observation time to 212 seconds.\nAn aPTT assay was performed using human plasma to determine the effect of γ′ peptide on the clotting time in this system. […] The MLA 1600 added SynthASil aPTT reagent (Ortho) to initiate clotting and clot formation was monitored spectrophotometrically for 106 seconds. […]\nAn aPTT assay was performed using human plasma to determine the effect of γ′ deletion peptides on the clotting time in this system. […] The MLA 1600 added SynthASil aPTT reagent (Ortho) to initiate clotting and clot formation was monitored spectrophotometrically for 106 seconds. […]"}, "[2]": {"system": "platelet aggregation in platelet-rich plasma", "experiment": "Platelet aggregometry assay (PAP-4) in platelet-rich plasma", "format": "cell-based", "settings": "for Platelet aggregation Slope, ADP / Platelet aggregation Extent, ADP: 2 μM ADP; for Platelet aggregation Slope, ADP: 0 mM: 47; for Platelet aggregation Extent, ADP / Platelet aggregation Extent, Epinephrine: 0 mM: 83%; for Platelet aggregation Slope, Epinephrine / Platelet aggregation Extent, Epinephrine: 10 μg/ml epinephrine; for Platelet aggregation Slope, Epinephrine: 0 mM: 24; for Platelet aggregation Slope, Arachidonic Acid / Platelet aggregation Extent, Arachidonic Acid: 0.5 mg/ml arachidonic acid; for Platelet aggregation Slope, Arachidonic Acid: 0 mM: 32; for Platelet aggregation Extent, Arachidonic Acid: 0 mM: 82%; for Platelet aggregation Extent, Thrombin / Platelet aggregation Slope, Thrombin: 0.2 units/ml thrombin; for Platelet aggregation Extent, Thrombin: 0 mM: 97%; for Platelet aggregation Slope, Thrombin: 0 mM: 113", "experimental": "Reptilase Time Assays. The reptilase time may be used as a control assay to examine the effects of a γ′ peptide. This assay is insensitive to thrombin inhibitors, since reptilase is used to clot fibrinogen rather than thrombin. An LA STA instrument (Diagnostica Stago) may be used to quantitate the effect of the γ′ peptide on the RVV, using the manufacturer's protocol. Briefly, 0-1 mM γ′ peptide or scrambled peptide or 0-10 units/ml unfractionated heparin may be added to 1 ml of normal reference plasma (DVVtroll) and loaded into the LA STA. The LA STA may be used to add Reptilase ST reagent (American Diagnostica) to initiate clotting, and clot formation monitored spectrophotometrically for 65 seconds. […] Platelet Aggregometzy Assays. This assay may be used to test the effects of a γ′ peptide on platelet aggregation in platelet-rich plasma. The activity of a γ′ peptide may be assayed in the presence or absence of epinephrine, ADP, collagen, ristocetin, arachidonic acid, and thrombin. A PAP-4 platelet aggregometer (Bio/Data) was used to quantitate the effect of the γ′ peptide on platelet aggregation, using the manufacturer's protocol. […] Blood was centrifuged for 10 minutes at 1,000×g, to isolate the supernatant of platelet-rich plasma. All experiments were performed within 2 hours of the blood draw. 0-1 mM γ′ peptide or scrambled peptide or 0-10 units/ml unfractionated heparin was added to 450 μl of platelet-rich plasma and loaded into siliconized cuvettes. 50 μl of agonist was added and the absorbance monitored for 6 minutes. The agonists used were 10 μg/ml epinephrine (American Reagent Laboratories), 2 μM ADP (Sigma), 0.5 mg/ml arachidonic acid (Bio/Data), or 0.2 units/ml thrombin. The presence or absence of a bi-phasic response may be determined, which is of particular significance in the presence of epinephrine, ADP, and ristocetin. The length of the lag phase may be determined, which is especially relevant in the presence of collagen. PFA-100 Assays. The effect of the γ′ peptide on platelet function may also be assessed using a Platelet Function Analyzer (PFA-100™, Dade Behring). The PFA-100 instrument measures the closure time of a capillary tube containing whole blood. This assay may be used to advantage to examine the effect of γ′ peptide on platelet function in whole blood in the presence of either of the platelet agonists epinephrine or ADP. Briefly, 0-1 mM γ′ peptide or scrambled peptide or 0-10 units/ml unfractionated heparin may be added to 800 μl of normal reference whole blood from an established control group and loaded into the PFA-100 to measure the closure time. Platelet function may be tested using both a collagen/epinephrine cartridge and a collagen/ADP cartridge\nPlatelet aggregation assays were performed as described hereinabove. A PAP-4 platelet aggregometer (Bio/Data) was used to quantitate the effect of the γ′ peptide on platelet aggregation, using the manufacturer's protocol.\nBlood was centrifuged for 10 minutes at 1,000×g, and the supernatant of platelet-rich plasma was separated. 0-1 mM γ′ peptide was added to 450 μl of platelet-rich plasma and loaded into siliconized cuvettes. 50 μl of agonist was added, and the absorbance was monitored for 6 minutes. The agonists used were 2 μM ADP (Sigma), 0.5 mg/ml arachidonic acid (Bio/Data), 10 μg/ml epinephrine (American Reagent Laboratories), or 0.2 units/ml thrombin."}},
  "note": "Ends that are not written are not given here.",
  "data": [
    {"substance": "PEHPAETEY(*)DSLY(*)PEDDL (PEHPAETEYDSLYPEDDL; not fully specified (residues 9, 13); printed as PEHPAETEY(*)DSLY(*)PEDDL) [γ′ 410-427]", "values": [
      {"measurement": "Blood clotting time, activated partial thromboplastin assay", "setting": "[1]", "value": "55.1 ± 0.0", "unit": "s"},
      {"measurement": "Platelet aggregation Slope, ADP", "setting": "[2]; 0.125 mM peptide", "value": 43},
      {"measurement": "Platelet aggregation Extent, ADP", "setting": "[2]; 0.125 mM peptide", "value": 87, "unit": "%"},
      {"measurement": "Platelet aggregation Slope, ADP", "setting": "[2]; 0.25 mM peptide", "value": 40},
      {"measurement": "Platelet aggregation Extent, ADP", "setting": "[2]; 0.25 mM peptide", "value": 86, "unit": "%"},
      {"measurement": "Platelet aggregation Slope, ADP", "setting": "[2]; 0.5 mM peptide", "value": 39},
      {"measurement": "Platelet aggregation Extent, ADP", "setting": "[2]; 0.5 mM peptide", "value": 82, "unit": "%"},
      {"measurement": "Platelet aggregation Slope, ADP", "setting": "[2]; 1.0 mM peptide", "value": 32},
      {"measurement": "Platelet aggregation Extent, ADP", "setting": "[2]; 1.0 mM peptide", "value": 58, "unit": "%"},
      {"measurement": "Platelet aggregation Slope, Epinephrine", "setting": "[2]; 0.125 mM peptide", "value": 22},
      {"measurement": "Platelet aggregation Extent, Epinephrine", "setting": "[2]; 0.125 mM peptide", "value": 84, "unit": "%"},
      {"measurement": "Platelet aggregation Slope, Epinephrine", "setting": "[2]; 0.25 mM peptide", "value": 20},
      {"measurement": "Platelet aggregation Extent, Epinephrine", "setting": "[2]; 0.25 mM peptide", "value": 82, "unit": "%"},
      {"measurement": "Platelet aggregation Slope, Epinephrine", "setting": "[2]; 0.5 mM peptide", "value": 16},
      {"measurement": "Platelet aggregation Extent, Epinephrine", "setting": "[2]; 0.5 mM peptide", "value": 78, "unit": "%"},
      {"measurement": "Platelet aggregation Slope, Epinephrine", "setting": "[2]; 1.0 mM peptide", "value": 9},
      {"measurement": "Platelet aggregation Extent, Epinephrine", "setting": "[2]; 1.0 mM peptide", "value": 43, "unit": "%"},
      {"measurement": "Platelet aggregation Slope, Arachidonic Acid", "setting": "[2]; 0.125 mM peptide", "value": 33},
      {"measurement": "Platelet aggregation Extent, Arachidonic Acid", "setting": "[2]; 0.125 mM peptide", "value": 81, "unit": "%"},
      {"measurement": "Platelet aggregation Slope, Arachidonic Acid", "setting": "[2]; 0.25 mM peptide", "value": 35},
      {"measurement": "Platelet aggregation Extent, Arachidonic Acid", "setting": "[2]; 0.25 mM peptide", "value": 82, "unit": "%"},
      {"measurement": "Platelet aggregation Slope, Arachidonic Acid", "setting": "[2]; 0.5 mM peptide", "value": 31},
      {"measurement": "Platelet aggregation Extent, Arachidonic Acid", "setting": "[2]; 0.5 mM peptide", "value": 83, "unit": "%"},
      {"measurement": "Platelet aggregation Slope, Arachidonic Acid", "setting": "[2]; 1.0 mM peptide", "value": 34},
      {"measurement": "Platelet aggregation Extent, Arachidonic Acid", "setting": "[2]; 1.0 mM peptide", "value": 85, "unit": "%"},
      {"measurement": "Platelet aggregation Extent, Thrombin", "setting": "[2]; 0.125 mM peptide", "value": 68, "unit": "%"},
      {"measurement": "Platelet aggregation Slope, Thrombin", "setting": "[2]; 0.125 mM peptide", "value": 70},
      {"measurement": "Platelet aggregation Extent, Thrombin", "setting": "[2]; 0.25 mM peptide", "value": 64, "unit": "%"},
      {"measurement": "Platelet aggregation Slope, Thrombin", "setting": "[2]; 0.25 mM peptide", "value": 39},
      {"measurement": "Platelet aggregation Extent, Thrombin", "setting": "[2]; 0.5 mM peptide", "value": 93, "unit": "%"},
      {"measurement": "Platelet aggregation Slope, Thrombin", "setting": "[2]; 0.5 mM peptide", "value": 21},
      {"measurement": "Platelet aggregation Extent, Thrombin", "setting": "[2]; 1.0 mM peptide", "value": 33, "unit": "%"},
      {"measurement": "Platelet aggregation Slope, Thrombin", "setting": "[2]; 1.0 mM peptide", "value": 10}
    ]}
  ]
}
